Patent US9120744B2, “Plasminogen activator inhibitor-1 inhibitors and methods of use thereof to modulate lipid metabolism” (THE REGENTS OF THE UNIVERSITY OF MICHIGAN, priority 2007, dated 2015)

Experiments:
[1] = tested on: PAI-1; assay: PAI-1 activity assay in ex vivo plasma with and without vitronectin; format: biochemical; conditions: plasma of PAI-1 null or PAI-1/vitronectin null mice, 20 nM PAI-1
[2] = biological target: active murine PAI-1 (Mus musculus (Mouse), UniProt P22777); assay: In vivo efficacy in transgenic mice that overexpress PAI-1, active PAI-1 in plasma; conditions: 3, 10, 30 mg/kg into the IVC, 1 hour
active murine PAI-1, sequence (P22777 23-402): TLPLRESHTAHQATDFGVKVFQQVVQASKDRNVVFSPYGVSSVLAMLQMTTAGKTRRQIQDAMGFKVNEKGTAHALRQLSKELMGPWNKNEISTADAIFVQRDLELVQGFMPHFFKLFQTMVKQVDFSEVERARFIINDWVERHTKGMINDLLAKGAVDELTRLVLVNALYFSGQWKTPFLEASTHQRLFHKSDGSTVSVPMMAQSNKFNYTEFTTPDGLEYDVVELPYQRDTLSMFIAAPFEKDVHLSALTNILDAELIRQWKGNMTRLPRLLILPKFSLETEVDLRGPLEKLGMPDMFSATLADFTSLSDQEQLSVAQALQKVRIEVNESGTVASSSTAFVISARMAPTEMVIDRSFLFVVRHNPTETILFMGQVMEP

active PAI-1 in plasma after treatment (in words) [2]: dose-dependent decrease in active PAI-1
Structure (SMILES): O=C(OC[C@H]1OC(OC(=O)c2cc(O)c(O)c(O)c2)[C@H](OC(=O)c2cc(O)c(O)c(O)c2)[C@@H](OC(=O)c2cc(O)c(O)c(O)c2)[C@H]1OC(=O)c1cc(O)c(O)c(O)c1)c1cc(O)c(O)c(O)c1 (some centres unmarked) [CDE-066]
PAI-1 inhibition in plasma with or without vitronectin (in words) [1]: inhibited PAI-1 equally well in plasma with or with out physiologic vitronectin
